Data taken from patent US9428753B2, “Use of LXR antagonists for treatment of side effects of elevated glucocorticoid levels” (The Governing Council of the University of Toronto, priority 2013, dated 2016).
Blank lines part the entries; values can stand above or below the compound they belong to.

How the values were obtained:
[1] = system: G6Pc; assay: G6Pc gene expression in mouse primary hepatocytes; settings: LXRα−/− hepatocytes; for G6Pc expression: 100 nM Dex + 10 μM LXR antagonist; for GC-induced G6Pc expression: Example 6, GC alone (10 μM; Dex 100 nM), overnight
Procedure: For the gene expression studies, the isolated hepatocytes were cultured at least 24 hrs prior to treatment with 10 μM Cortisol, 10 μM Triamcinolone acetonide, 10 μM Prednisone, and 100 nM Dex all±10 μM GSK2033 overnight, and then harvested to isolate mRNA.

[2] = biological target: T1, GR (Homo sapiens, UniProt P04150); assay: GAL4-GR / UAS-luc co-transfection reporter assay in HEK293 cells; format: cell-based; design: co-transfecting UAS-reporter and GAL4-LBD of the nuclear receptors LXRα, LXRβ and GR; GAL4 (fusion partner); expressed in transfected cells; host or cells: HEK293 cells; mouse primary hepatocytes; settings: Example 7, 100 nM Dex
T1 sequence (P04150 524-758 limits assumed): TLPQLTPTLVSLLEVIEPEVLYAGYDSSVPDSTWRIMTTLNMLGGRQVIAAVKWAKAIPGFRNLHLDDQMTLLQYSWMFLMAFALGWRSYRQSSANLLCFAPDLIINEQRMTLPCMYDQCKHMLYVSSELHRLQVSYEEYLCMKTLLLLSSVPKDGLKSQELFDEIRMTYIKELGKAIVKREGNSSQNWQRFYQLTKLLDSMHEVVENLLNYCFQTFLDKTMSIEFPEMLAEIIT
Procedure: (§1) RLU=relative luciferase units.
as §1
Further experiments were then carried out to determine the inhibitory potencies for the individual LXR isoforms in HEK 293 cells by co-transfecting UAS-reporter and GAL4-LBD of the nuclear receptors LXRα, LXRβ and GR and then treating with 8 different concentrations of GSK2033. To assess suppression of ligand activated receptors, the transfected cells were co-treated with increasing doses of GSK2033, in addition to T09091317 or Dex (dexamethasone) (at EC80 of LXR isoforms and GR, respectively).
A number of experiments were carried out to determine the relative inhibitory potencies of GSK2033, Amgen 54 and DMHCl for the individual LXR isoforms in HEK 293 cells by co-transfecting UAS-reporter and GAL4-LBD of the nuclear receptors LXRα, LXRβ and GR and then treating with 6 different concentrations of GSK2033, Amgen 54 and DMHCl. To assess suppression of ligand activated receptors, the transfected cells were co-treated with increasing doses of GSK2033, Amgen 54 and DMHCl, in addition to T09091317 or Dex (at EC80 of LXR isoforms and GR, respectively).

[3] = system: Pepck; assay: Pepck gene expression in mouse primary hepatocytes; format: cell-based; settings: for GC-induced Pepck expression: Example 6, GC alone (10 μM; Dex 100 nM)
[4] = system: tyrosine aminotransferase (TAT); assay: TAT gene expression in mouse primary hepatocytes; format: cell-based; settings: 100 nM Dex
Procedure: T09 treatment was used as a positive control for LXR activity. (D) Glucose output over 24 hrs from LXRα−/− and LXRβ−/− mouse primary hepatocytes following Dex 100 nM±10 μM GSK2033 treatment. (E) Glucose output over 8 hrs from WT hepatocytes following Dex 500 nM±10 μM GSK2033 treatments. […] Legend: V=vehicle, G=GSK2033 (LXR antagonist); D=dexamethasone (GR agonist); and T09=T0901317 (LXR agonist).

[5] = system: mouse primary hepatocytes; assay: Glucose production (glucose output) in mouse primary hepatocytes; format: cell-based
Procedure: T09 treatment was used as a positive control for LXR activity. (D) Glucose output over 24 hrs from LXRα−/− and LXRβ−/− mouse primary hepatocytes following Dex 100 nM±10 μM GSK2033 treatment. (E) Glucose output over 8 hrs from WT hepatocytes following Dex 500 nM±10 μM GSK2033 treatments. Data represent the Avg±SD, N=3. *P<0.05 by One way ANOVA, Student Newman Keuls. Legend: V=vehicle, G=GSK2033 (LXR antagonist); D=dexamethasone (GR agonist); and T09=T0901317 (LXR agonist).
While not wishing to be limited by theory, subsequent to conducting these initial studies it was realized that 24 hour incubation of hepatocytes in gluconeogenic media may be too long. In the literature, for this type of assay, primary heptocytes are usually incubated up to 12 hours. As such, for subsequent studies of the present application, WT cells were treated with 500 nM Dex for 8 hours to be able to measure detectable levels of glucose in the media.

[6] = system: LXRα−/− mice; assay: In vivo 5 day Dex ± GSK2033 co-treatment study; design: species or system mouse; settings: Dex group
Procedure: LXRα−/− mice were treated with Vehicle (Veh), Dex (2.5 mg/kg) b.i.d. or GSK2033 40 mg/kg (once a day) along with Dex b.i.d. for 5 days. (A) Plasma glucose levels were measured by a colorimetric kit (Wako). (B) Spleen weights were measured at the time of sacrifice, and are presented normalized to body weight. (C) Liver Pepck, FOXO1, Pgc 1α, FGF21, GR and LXRβ gene expression measured by QPCR. Data represent the Avg±SEM, N=2-5. *P<0.05 by One way ANOVA, Student Newman Keuls.
Having observed promising results with GSK2033 co-treatment with Dex in-vitro (GSK2033-mediated suppression of GC-induced gluconeogenic side effects without affecting desirable immune suppression); a study was conducted, in which whole body LXRα−/− mice were treated with vehicle (Veh), 2.5 mg/kg bid (subcutaneous injection) Dex or Dex+40 mg/kg GSK2033 (once a day intraperitoneal injection) for 5 days, and sacrificed at lights on.

[7] = system: IL-6; assay: IL-6 gene expression in LPS activated mouse primary macrophages (RT-QPCR); format: cell-based; settings: LPS activated macrophages; 250 nM T09, 18 hrs
Procedure: (§2) The expression of genes involved in immune response IL-1β, IL-6 and GILZ was measured following an overnight treatment with Dex 100 nM, 250 nM T0901317 (T09), and/or 10 μM GSK2033 in LPS activated WT, LXR α −/− and LXRβ −/− mouse primary macrophages, by RT-QPCR. Data represent the Avg±SD, N=3. *P<0.05 by One way ANOVA, Student Newman Keuls.
(§3) To assess the ability of GSK2033 to affect GR-mediated inflammatory suppression, a number of gene expression studies were conducted on primary macrophages isolated from WT, LXRα−/− and LXRβ−/− mice. Cells were pre-treated with 10 ng/ml lipopolysaccharide (LPS) for 6 hrs (to induce a potent inflammatory response) followed by treatment of 100 nM Dex, 10 μM GSK2033 and/or 250 nM T09 for 18 hrs.

[8] = system: Srebp-1c; assay: Srebp-1c gene expression in mouse primary hepatocytes; format: cell-based; settings: 250 nM T09
[9] = system: IL-1β; assay: IL-1β gene expression in LPS activated mouse primary macrophages (RT-QPCR); format: cell-based; settings: LPS activated macrophages; 250 nM T09, 18 hrs
Procedure: as §2, §3

[10] = Example 8, LXRα−/− hepatocytes, 100 nM Dex + 10 μM LXR antagonist

Dex induced GR activity [2]: unaffected
Compound: CS(=O)(=O)c1ccc(C#CC(O)(c2ccc(N(CC3CC3)S(=O)(=O)c3ccccc3)cc2)C(F)(F)F)cc1 (stereo not drawn) [Amgen 54]
G6Pc expression ([1]; Example 8): 6.5 fold | Pepck expression [3, 10]: 8.4 fold

Compound: C[C@]12CCC(=O)C=C1CC[C@@H]1[C@@H]2[C@@H](O)C[C@@]2(C)[C@H]1CC[C@]2(O)C(=O)CO [Cortisol, cortisol (hydrocortisone)]
GC-induced G6Pc expression [1]: 10.3 fold | GC-induced Pepck expression ([3]; LXRα−/− hepatocytes, overnight): 23.9 fold

Compound: CC(CCC(=O)N(C)C)[C@H]1CC[C@H]2C3CC=C4CC(Cl)CC[C@]4(C)C3CC[C@]12C (stereo partly drawn) [DMHCl]
G6Pc expression ([1]; Example 8): 3.9 fold | Dex induced GR activity [2]: unaffected | Pepck expression [3, 10]: 1.4 fold

Compound: C[C@@H]1C[C@H]2[C@@H]3CCC4=CC(=O)C=C[C@]4(C)[C@@]3(F)[C@@H](O)C[C@]2(C)[C@@]1(O)C(=O)CO [Dex, dexamethasone]
GC-induced G6Pc expression [1]: 11.2 fold | Dex-mediated G6Pc expression ([1]; Example 8, 100 nM Dex alone): 10.3 fold | TAT expression (induction) ([4]; LXRα−/− hepatocytes): 12.7 fold | TAT expression (induction) ([4]; LXRβ−/− hepatocytes): 9.7 fold | TAT expression (induction) ([4]; WT hepatocytes): 20.8 fold | glucose secretion (glucose output) ([5]; LXRα−/− hepatocytes, 100 nM Dex alone, 24 hours): 2.2 fold | glucose secretion (glucose output) ([5]; WT hepatocytes, 500 nM Dex alone, 8 hours): 3 fold | Pepck expression ([3]; Example 3, LXRα−/− hepatocytes, 100 nM Dex alone): 15.7 fold | Pepck expression ([3]; Example 3, WT hepatocytes, 100 nM Dex alone, overnight): 8.5 fold | GC-induced Pepck expression ([3]; LXRα−/− hepatocytes, overnight): 23.2 fold | Dex-induced Pepck expression ([3]; Example 8, LXRα−/− hepatocytes, 100 nM Dex alone): 15.8 fold | liver FOXO 1 gene expression (induction) [6]: 3.3 fold | liver Pepck gene expression (induction) [6]: 3.7 fold

Compound: C[C@]12C=CC(=O)C=C1CC[C@@H]1[C@@H]2C(=O)C[C@@]2(C)[C@H]1CC[C@]2(O)C(=O)CO [Prednisone, prednisone]
GC-induced G6Pc expression [1]: 22.3 fold | GC-induced Pepck expression ([3]; LXRα−/− hepatocytes, overnight): 9.3 fold

Compound: O=S(=O)(c1ccccc1)N(CC(F)(F)F)c1ccc(C(O)(C(F)(F)F)C(F)(F)F)cc1 [T09]
IL-6 expression, LXR agonist alone [7]: suppression | Srebp-1c expression (induction) ([8]; LXRα−/− hepatocytes): 3.7 fold | Srebp-1c expression (induction) ([8]; LXRβ−/− hepatocytes): 42.0 fold | Srebp-1c expression (induction) ([8]; WT hepatocytes): 37.7 fold | IL-1β expression, LXR agonist alone [9]: suppression

Compound: CC1(C)O[C@@H]2C[C@H]3[C@@H]4CCC5=CC(=O)C=C[C@]5(C)[C@@]4(F)[C@@H](O)C[C@]3(C)[C@]2(C(=O)CO)O1 [Triamcinolone acetonide, triamcinolone acetonide]
GC-induced G6Pc expression [1]: 27.3 fold | GC-induced Pepck expression ([3]; LXRα−/− hepatocytes, overnight): 6.1 fold
